In ChEMBL document CHEMBL2146376, “'Inverted' analogs of the antibiotic gramicidin S with an improved biological profile” (Bioorg Med Chem, 2012):
Values after ≈ are worked out from the molar mass of the structure shown. Square brackets hold non-standard residues; d marks the D form. Peptide text beside a SMILES is read from it. Gly(1-adamantyl) = N[C@H](C(=O)O)C12CC3CC(CC(C3)C1)C2; Orn = NCCC[C@H](N)C(=O)O

Columns and labels:
[1] = tested on: Staphylococcus epidermidis; test: Antibacterial activity against Staphylococcus epidermidis ATCC 12228 after 24 hrs by broth dilution method; assay type: functional; conditions: ATCC 12228, 24 h
[2] = Toxicity in human erythrocytes assessed as concentration required to achieve 100% hemolysis after 4 hrs; assay type: cell-based; conditions: erythrocyte
Enterococcus faecalis = test: Antibacterial activity against Enterococcus faecalis ATCC 29212 after 24 hrs by broth dilution method; assay type: functional; conditions: ATCC 29212, 24 h
Bacillus cereus = test: Antibacterial activity against Bacillus cereus ATCC 11778 after 24 hrs by broth dilution method; assay type: functional; conditions: ATCC 11778, 24 h
Staphylococcus aureus [3] = test: Antibacterial activity against Staphylococcus aureus ATCC 29213 after 24 hrs by broth dilution method; assay type: functional; conditions: ATCC 29213, 24 h
Escherichia coli = test: Antibacterial activity against Escherichia coli ATCC 25922 after 24 hrs by broth dilution method; assay type: functional; conditions: ATCC 25922, 24 h
Pseudomonas aeruginosa = test: Antibacterial activity against Pseudomonas aeruginosa ATCC 27853 after 24 hrs by broth dilution method; assay type: functional; conditions: ATCC 27853, 24 h
Staphylococcus aureus [4] = test: Antibacterial activity against PVL-deficient and non-typable methicillin-resistant Staphylococcus aureus N133-T034 after 24 hrs by broth dilution method; assay type: functional; conditions: N133-T034, 24 h
Staphylococcus aureus [5] = test: Antibacterial activity against PVL-positive and non-typable methicillin-resistant Staphylococcus aureus USA300-1110301146 after 24 hrs by broth dilution method; assay type: functional; conditions: USA300-1110301146, 24 h
Staphylococcus aureus [6] = test: Antibacterial activity against PVL-deficient and non-typable methicillin-resistant Staphylococcus aureus N229-T034 after 24 hrs by broth dilution method; assay type: functional; conditions: N229-T034, 24 h
Staphylococcus aureus [7] = test: Antibacterial activity against PVL-positive and non-typable methicillin-resistant Staphylococcus aureus 1110301981H-T034 after 24 hrs by broth dilution method; assay type: functional

| Compound | MIC [1] [µg/mL] | Activity [2] [µM] | MIC (Enterococcus faecalis) [µg/mL] | MIC (Bacillus cereus) [µg/mL] | MIC (Staphylococcus aureus [3]) [µg/mL] | MIC (Escherichia coli) [µg/mL] | MIC (Pseudomonas aeruginosa) [µg/mL] | MIC (Staphylococcus aureus [4]) [µg/mL] | MIC (Staphylococcus aureus [5]) [µg/mL] | MIC (Staphylococcus aureus [6]) [µg/mL] | MIC (Staphylococcus aureus [7]) [µg/mL] |
| --- | --- | --- | --- | --- | --- | --- | --- | --- | --- | --- | --- |
| CC(C)C[C@@H]1NC(=O)[C@H](CCCN)NC(=O)[C@@H]2CCCN2C(=O)[C@@H](Cc2ccccc2)NC(=O)[C@H](CCCN)NC(=O)[C@H](CC(C)C)NC(=O)[C@H](CCCN)NC(=O)[C@@H]2CCCN2C(=O)[C@@H](Cc2ccccc2)NC(=O)[C@H](CCCN)NC1=O | 64 (≈ 54.6 µM) | > 500 | > 64 | > 64 | > 64 | > 64 | > 64 | – | – | – | – |
| CC(C)C[C@@H]1NC(=O)[C@H](CCCN)NC(=O)[C@@H]2CCCN2C(=O)[C@@H](Cc2ccccc2)NC(=O)[C@H](CCCN)NC(=O)[C@H](CC23CC4CC(CC(C4)C2)C3)NC(=O)[C@H](CCCN)NC(=O)[C@@H]2CCCN2C(=O)[C@@H](Cc2ccccc2)NC(=O)[C@H](CCCN)NC1=O | 4 (≈ 3.17 µM) | > 500 | 64 (≈ 50.6 µM) | 16 (≈ 12.7 µM) | 64 (≈ 50.6 µM) | 64 (≈ 50.6 µM) | 16 (≈ 12.7 µM) | 32 (≈ 25.3 µM) | 32 (≈ 25.3 µM) | 32 (≈ 25.3 µM) | 64 (≈ 50.6 µM) |
| CC(C)C[C@@H]1NC(=O)[C@H](CCCN)NC(=O)[C@H](C(C)C)NC(=O)[C@@H]2CCCN2C(=O)[C@@H](Cc2ccccc2)NC(=O)[C@H](CC(C)C)NC(=O)[C@H](CCCN)NC(=O)[C@H](C(C)C)NC(=O)[C@@H]2CCCN2C(=O)[C@@H](Cc2ccccc2)NC1=O [GRAMICIDIN S] (cyclo(L[dF]PV[Orn]L[dF]PV[Orn])) | 8 (≈ 7.01 µM) | 31.3 | 16 (≈ 14 µM) | 8 (≈ 7.01 µM) | 8 (≈ 7.01 µM) | 32 (≈ 28 µM) | 64 (≈ 56.1 µM) | 8 (≈ 7.01 µM) | 8 (≈ 7.01 µM) | 8 (≈ 7.01 µM) | 8 (≈ 7.01 µM) |
| CC(C)(C)C[C@@H]1NC(=O)[C@H](CCCN)NC(=O)[C@@H]2CCCN2C(=O)[C@@H](Cc2ccccc2)NC(=O)[C@H](CCCN)NC(=O)[C@H](CC23CC4CC(CC(C4)C2)C3)NC(=O)[C@H](CCCN)NC(=O)[C@@H]2CCCN2C(=O)[C@@H](Cc2ccccc2)NC(=O)[C@H](CCCN)NC1=O | 4 (≈ 3.13 µM) | 500 | 32 (≈ 25 µM) | 4 (≈ 3.13 µM) | 16 (≈ 12.5 µM) | 16 (≈ 12.5 µM) | 16 (≈ 12.5 µM) | 16 (≈ 12.5 µM) | 16 (≈ 12.5 µM) | 16 (≈ 12.5 µM) | 16 (≈ 12.5 µM) |
| CC(C)(C)[C@@H]1NC(=O)[C@H](CCCN)NC(=O)[C@@H]2CCCN2C(=O)[C@@H](Cc2ccccc2)NC(=O)[C@H](CCCN)NC(=O)[C@H](C23CC4CC(CC(C4)C2)C3)NC(=O)[C@H](CCCN)NC(=O)[C@@H]2CCCN2C(=O)[C@@H](Cc2ccccc2)NC(=O)[C@H](CCCN)NC1=O | 4 (≈ 3.2 µM) | > 500 | > 64 | 32 (≈ 25.6 µM) | 64 (≈ 51.2 µM) | 32 (≈ 25.6 µM) | 32 (≈ 25.6 µM) | 64 (≈ 51.2 µM) | 64 (≈ 51.2 µM) | 64 (≈ 51.2 µM) | 64 (≈ 51.2 µM) |
| CC(C)(C)C[C@@H]1NC(=O)[C@H](CCCN)NC(=O)[C@@H]2CCCN2C(=O)[C@@H](Cc2ccccc2)NC(=O)[C@H](CCCN)NC(=O)[C@H](CC(C)(C)C)NC(=O)[C@H](CCCN)NC(=O)[C@@H]2CCCN2C(=O)[C@@H](Cc2ccccc2)NC(=O)[C@H](CCCN)NC1=O | 16 (≈ 13.3 µM) | > 500 | > 64 | > 64 | > 64 | > 64 | 64 (≈ 53.4 µM) | > 64 | > 64 | > 64 | > 64 |
| CC(C)[C@@H]1NC(=O)[C@H](CCCN)NC(=O)[C@@H]2CCCN2C(=O)[C@@H](Cc2ccccc2)NC(=O)[C@H](CCCN)NC(=O)[C@H](C23CC4CC(CC(C4)C2)C3)NC(=O)[C@H](CCCN)NC(=O)[C@@H]2CCCN2C(=O)[C@@H](Cc2ccccc2)NC(=O)[C@H](CCCN)NC1=O | 16 (≈ 12.9 µM) | > 500 | > 64 | 64 (≈ 51.8 µM) | 64 (≈ 51.8 µM) | > 64 | 64 (≈ 51.8 µM) | > 64 | > 64 | > 64 | > 64 |
| CCCCCCCCCC[C@@H]1NC(=O)[C@H](CCCN)NC(=O)[C@@H]2CCCN2C(=O)[C@@H](Cc2ccccc2)NC(=O)[C@H](CCCN)NC(=O)[C@H](C(C)C)NC(=O)[C@H](CCCN)NC(=O)[C@@H]2CCCN2C(=O)[C@@H](Cc2ccccc2)NC(=O)[C@H](CCCN)NC1=O | 8 (≈ 6.44 µM) | 500 | 16 (≈ 12.9 µM) | 4 (≈ 3.22 µM) | 16 (≈ 12.9 µM) | 16 (≈ 12.9 µM) | 16 (≈ 12.9 µM) | 8 (≈ 6.44 µM) | 8 (≈ 6.44 µM) | 8 (≈ 6.44 µM) | 16 (≈ 12.9 µM) |
| NCCC[C@@H]1NC(=O)[C@H](CC23CC4CC(CC(C4)C2)C3)NC(=O)[C@H](CCCN)NC(=O)[C@@H]2CCCN2C(=O)[C@@H](Cc2ccccc2)NC(=O)[C@H](CCCN)NC(=O)[C@H](CC23CC4CC(CC(C4)C2)C3)NC(=O)[C@H](CCCN)NC(=O)[C@@H]2CCCN2C(=O)[C@@H](Cc2ccccc2)NC1=O | 4 (≈ 2.95 µM) | 62.5 | 8 (≈ 5.9 µM) | 8 (≈ 5.9 µM) | 8 (≈ 5.9 µM) | 8 (≈ 5.9 µM) | 16 (≈ 11.8 µM) | 8 (≈ 5.9 µM) | 8 (≈ 5.9 µM) | 8 (≈ 5.9 µM) | 8 (≈ 5.9 µM) |
| CC(C)(C)[C@@H]1NC(=O)[C@H](CCCN)NC(=O)[C@@H]2CCCN2C(=O)[C@@H](Cc2ccccc2)NC(=O)[C@H](CCCN)NC(=O)[C@H](C(C)(C)C)NC(=O)[C@H](CCCN)NC(=O)[C@@H]2CCCN2C(=O)[C@@H](Cc2ccccc2)NC(=O)[C@H](CCCN)NC1=O | 64 (≈ 54.6 µM) | > 500 | > 64 | > 64 | > 64 | > 64 | > 64 | > 64 | > 64 | > 64 | > 64 |
| CC(C)[C@@H]1NC(=O)[C@H](CCCN)NC(=O)[C@@H]2CCCN2C(=O)[C@@H](Cc2ccccc2)NC(=O)[C@H](CCCN)NC(=O)[C@H](C(C)C)NC(=O)[C@H](CCCN)NC(=O)[C@@H]2CCCN2C(=O)[C@@H](Cc2ccccc2)NC(=O)[C@H](CCCN)NC1=O | 64 (≈ 56 µM) | > 500 | > 64 | > 64 | > 64 | > 64 | > 64 | > 64 | > 64 | > 64 | > 64 |
| CCCCCCCCCC[C@@H]1NC(=O)[C@H](CCCN)NC(=O)[C@@H]2CCCN2C(=O)[C@@H](Cc2ccccc2)NC(=O)[C@H](CCCN)NC(=O)[C@H](CCCCCCCCCC)NC(=O)[C@H](CCCN)NC(=O)[C@@H]2CCCN2C(=O)[C@@H](Cc2ccccc2)NC(=O)[C@H](CCCN)NC1=O | 4 (≈ 2.99 µM) | 62.5 | 32 (≈ 23.9 µM) | 8 (≈ 5.97 µM) | 64 (≈ 47.8 µM) | 64 (≈ 47.8 µM) | 64 (≈ 47.8 µM) | 64 (≈ 47.8 µM) | 64 (≈ 47.8 µM) | 64 (≈ 47.8 µM) | 64 (≈ 47.8 µM) |
| CC(C)[C@@H]1NC(=O)[C@H](CCCN)NC(=O)[C@@H]2CCCN2C(=O)[C@@H](Cc2ccccc2)NC(=O)[C@H](CCCN)NC(=O)[C@H](C(C)(C)C)NC(=O)[C@H](CCCN)NC(=O)[C@@H]2CCCN2C(=O)[C@@H](Cc2ccccc2)NC(=O)[C@H](CCCN)NC1=O | 64 (≈ 55.3 µM) | > 500 | > 64 | > 64 | > 64 | > 64 | > 64 | > 64 | > 64 | > 64 | > 64 |
| NCCC[C@@H]1NC(=O)[C@H](C23CC4CC(CC(C4)C2)C3)NC(=O)[C@H](CCCN)NC(=O)[C@@H]2CCCN2C(=O)[C@@H](Cc2ccccc2)NC(=O)[C@H](CCCN)NC(=O)[C@H](C23CC4CC(CC(C4)C2)C3)NC(=O)[C@H](CCCN)NC(=O)[C@@H]2CCCN2C(=O)[C@@H](Cc2ccccc2)NC1=O (cyclo([Orn][dF]P[Orn][Gly(1-adamantyl)][Orn][dF]P[Orn][Gly(1-adamantyl)])) | 4 (≈ 3.01 µM) | 500 | 8 (≈ 6.03 µM) | 8 (≈ 6.03 µM) | 8 (≈ 6.03 µM) | 8 (≈ 6.03 µM) | 16 (≈ 12.1 µM) | 8 (≈ 6.03 µM) | 8 (≈ 6.03 µM) | 8 (≈ 6.03 µM) | 8 (≈ 6.03 µM) |
| CC(C)C[C@@H]1NC(=O)[C@H](CCCN)NC(=O)[C@@H]2CCCN2C(=O)[C@@H](Cc2ccccc2)NC(=O)[C@H](CCCN)NC(=O)[C@H](CC(C)(C)C)NC(=O)[C@H](CCCN)NC(=O)[C@@H]2CCCN2C(=O)[C@@H](Cc2ccccc2)NC(=O)[C@H](CCCN)NC1=O | 16 (≈ 13.5 µM) | > 500 | > 64 | > 64 | > 64 | > 64 | > 64 | > 64 | > 64 | > 64 | > 64 |
